Values joined by “and” are separate entries in the source; they are usually repeats but may differ in a detail not shown here. Equal values may be shown once.
What was measured:
C. albicans ISS 1 = assay: Experimental subcutaneous infection with Candida albicans in mice; format: in vivo, Candida albicans in mice (male CD1 outbred); settings: individual samples 1-4; 50 mcg s.c. at 0, 48 and 96 hours (150 total mcg per animal)
Description: Male CD1 outbred mice (IFFA Credo) aged 8 weeks were used (4 animals per group).
A pathogenic strain of Candida was used, namely C. albicans ISS 1.
The infected animals were treated with ST 722 dissolved in saline, and Miconazole diluted in saline from a stock solution containing 1% Dimethyl Formamide.
From an overnight broth culture of C. albicans in Sabouraud broth, a fungal suspension was prepared in sterile saline containing 5.0×10^5 cells/mi. An inoculum of 0.5 ml of this suspension was injected subcutaneously into the abdominal wall of each animal.
The compounds were then administered by subcutaneous injection in the same area of the fungal challenge at the dose of 50 mcg (in 0.2 ml of saline) immediately after the inoculum and following 48 and 96 hours (150 total mcg per animal).
Then, 48 hours following the last treatment (6 days after the challenge with Candida), the animals were sacrificed, and the abdominal wall as well as the peritoneum were dissected out.
The excised tissues were then homogenized in 5 ml of sterile saline with a Potter-Elvehjem tissue grinder. The resulting suspensions, appropriately diluted, where plated onto Petri dishes containing a selective agar medium (BIGGY agar), which allows to easily detect the yeast Colony Forming Units (CFU/ml).
The number of colonies scored in a series of dilutions for each single sample consents to calculate the number of yeast cells present in the infected tissue sample as follows: [formula] Where Zi is the number of dilutions performed, Ni is the number of plates prepared for each dilution, and Ci is the total number of yeast cells scored in each dilution.

Candida albicans (562) = assay: MIC for yeast and yeast-like strains; format: cell-based; settings: 48 hours, 35° C., read-out: Minimal Inhibitory Concentration (MIC)
Description: (§1) The following strains were used (the number of strains is in brackets): Candida (13); Criptococcus (2); Saccharormyces (1); Torulopsis (1).
(§2) Yeast Nitrogen Base supplemented with 0.15% asparagine and 1.0% glucose (as carbon source) was the medium utilized in the assays.
(§3) This medium was buffered with 0.165 M 2-(N-morpholino) propane sulfonic acid (MOPS), a non-chelating buffer. […]
(§4) The inoculum was prepared from an overnight broth culture (a 48-hour culture only for Cryptococcus) in Sabouraud broth and appropriately diluted to yield a final suspension containing approximately 5.0×10^6 Colony Forming Units per ml (CFU/ml), when compared to the Mc Farland's standard control (BRAY W. E., Clinical Laboratory Methods, 5th Ed. C. V. MOSBY, St. Louis, Mo, 1957).
(§5) After further diluting (1:50), a […] volume of such fungal suspensions and an equal volume of the substance solutions were distributed into each well of a microtiter plate (96 wells, round bottom). Such a procedure eventually allowed for an "in vitro" antimycotic activity assay utilizing final fungal inocula of approximately 5.0×10^4 CFU/ml.

Candida albicans (A 54) = assay: MIC for yeast and yeast-like strains; format: cell-based; settings: 48 hours, 35° C., read-out: Minimal Inhibitory Concentration (MIC)
Description: as §1, §2, §3, §4, §5

Candida albicans (Ca 2) = assay: MIC for yeast and yeast-like strains; format: cell-based; settings: 48 hours, 35° C., read-out: Minimal Inhibitory Concentration (MIC)
Description: as §1, §2, §3, §4, §5

Candida krusei (ISS 1) = assay: MIC for yeast and yeast-like strains; format: cell-based; settings: Pichia kudriavzevii; 48 hours, 35° C.; read-out: Minimal Inhibitory Concentration (MIC)
Description: as §1, §2, §3, §4, §5

[1] = system: Candida tropicalis (5705); assay: MIC for yeast and yeast-like strains; format: cell-based; settings: 48 hours, 35° C., read-out: Minimal Inhibitory Concentration (MIC)
Description: as §1, §2, §3, §4, §5

[2] = system: Cryptococcus neoformans (4711); assay: MIC for yeast and yeast-like strains; format: cell-based; settings: 48 hours, 35° C., read-out: Minimal Inhibitory Concentration (MIC)
Description: as §1, §2, §3, §4, §5

[3] = system: Saccharomyces cerevisiae (ATCC 7752); assay: MIC for yeast and yeast-like strains; format: cell-based; settings: ATCC7752, 48 hours, 35° C., read-out: Minimal Inhibitory Concentration (MIC)
Description: as §1, §2, §3, §4, §5

[4] = system: Torulopsis candida (D.S.); assay: MIC for yeast and yeast-like strains; format: cell-based; settings: Suzukiozyma candida; 48 hours, 35° C.; read-out: Minimal Inhibitory Concentration (MIC)
Description: as §1, §2, §3, §4, §5

Candida albicans (PG) = assay: MIC and MFC for yeast and yeast-like strains; format: cell-based; settings: 48 hours, 35° C., read-out: Minimal Inhibitory Concentration (MIC)
Description: as §1, §2
(§6) This medium was buffered with 0.165 M 2-(N-morpholino) propane sulfonic acid (MOPS), a non-chelating buffer.
(§7) Antimicrob. Agents Cheroother. Aug. 34.8:1542-1545).
as §4, §5
(§8) The minimal fungicidal concentration was evaluated by spot-transferring onto Petri dishes, containing Sabouraud agar, 0.01-ml volumes of all the samples showing no visible fungal growth.

[5] = system: Candida albicans (ATCC 2091); assay: MIC for yeast and yeast-like strains; format: cell-based; settings: ATCC2091, 48 hours, 35° C., read-out: Minimal Inhibitory Concentration (MIC)
Description: as §1, §2, §6, §7, §4, §5

Candida albicans (ISS 1) = assay: MIC for yeast and yeast-like strains; format: cell-based; settings: 48 hours, 35° C., read-out: Minimal Inhibitory Concentration (MIC)
Description: as §1, §2, §6, §7, §4, §5

Candida glabrata (ISS 1) = assay: MIC for yeast and yeast-like strains; format: cell-based; settings: Nakaseomyces glabratus; 48 hours, 35° C.; read-out: Minimal Inhibitory Concentration (MIC)
Description: as §1, §2, §6, §7, §4, §5

[6] = system: Candida guilliermondii (ISS 1); assay: MIC for yeast and yeast-like strains; format: cell-based; settings: Meyerozyma guilliermondii; 48 hours, 35° C.; read-out: Minimal Inhibitory Concentration (MIC)
Description: as §1, §2, §6, §7, §4, §5

[7] = system: Candida parapsilosis (ISS 1); assay: MIC for yeast and yeast-like strains; format: cell-based; settings: Lodderomyces parapsilosis; 48 hours, 35° C.; read-out: Minimal Inhibitory Concentration (MIC)
Description: as §1, §2, §6, §7, §4, §5

[8] = system: Candida pseudotropicalis (EC 1); assay: MIC for yeast and yeast-like strains; format: cell-based; settings: Kluyveromyces marxianus; 48 hours, 35° C.; read-out: Minimal Inhibitory Concentration (MIC)
Description: as §1, §2, §6, §7, §4, §5

[9] = system: Candida tropicalis (ISS 1); assay: MIC for yeast and yeast-like strains; format: cell-based; settings: 48 hours, 35° C., read-out: Minimal Inhibitory Concentration (MIC)
Description: as §1, §2, §6, §7, §4, §5

[10] = system: Cryptococcus neoformans (ISS 1); assay: MIC for yeast and yeast-like strains; format: cell-based; settings: 48 hours, 35° C., read-out: Minimal Inhibitory Concentration (MIC)
Description: as §1, §2, §6, §7, §4, §5

yeast-like fungi = assay: MIC / MFC for yeast-like fungi, all strains; format: cell-based, Candida, Cryptococcus, Saccharomyces, Torulopsis; settings: versus susceptible strains; read-out: Mean MIC values
Description: as §1, §2, §3, §4, §5, §8

[11] = system: Aspergillus fumigatus (1/A); assay: MIC for filamentous fungi; format: cell-based; settings: read-out: Minimal Inhibitory Concentration (MIC)
Excerpt: (§9) The following strains were used (the number of strains is in brackets): Aspergillus (5); Fusarium (1); Mucor (1); Penicillium (1).
(§10) The tested substances were: ST 712, ST 722, ST 982, ST 983, ST 1000, ST 1001, ST 1032, ST 1033, ST 1034, ST 1036, ST 1037, ST 1038, ST 1050, ST 1051, ST 1052, ST 1053. The assay medium was the same as the one used in the previous study. The conidia from 72-hour cultures in Sabouraud agar, collected by washing with Sabouraud medium and Tween 80 (one drop of Tween per 10 ml of medium), were utilized as inoculum (5.0×10^4 CFU/ml).
(§11) The assay was performed using the same procedure as described for yeast-like fungi.
(§12) Also the evaluation of MIC and MFC was as reported previously.

[12] = system: Aspergillus fumigatus (2/A); assay: MIC for filamentous fungi; format: cell-based; settings: read-out: Minimal Inhibitory Concentration (MIC)
Excerpt: as §9, §10, §11, §12

[13] = system: Aspergillus fumigatus (ATCC 28212); assay: MIC for filamentous fungi; format: cell-based; settings: ATCC28212, read-out: Minimal Inhibitory Concentration (MIC)
Excerpt: as §9, §10, §11, §12

[14] = system: Aspergillus fumigatus (C/1); assay: MIC for filamentous fungi; format: cell-based; settings: read-out: Minimal Inhibitory Concentration (MIC)
Excerpt: as §9, §10, §11, §12

[15] = system: Aspergillus niger (ATCC 16404); assay: MIC for filamentous fungi; format: cell-based; settings: ATCC16404, read-out: Minimal Inhibitory Concentration (MIC)
Excerpt: as §9, §10, §11, §12

Fusarium sp. (ISS 1) = assay: MIC for filamentous fungi; format: cell-based; settings: read-out: Minimal Inhibitory Concentration (MIC)
Excerpt: as §9, §10, §11, §12

Mucor mucedo (ATCC 7941) = assay: MIC for filamentous fungi; format: cell-based; settings: ATCC7941, read-out: Minimal Inhibitory Concentration (MIC)
Excerpt: as §9, §10, §11, §12

Penicillium sp. (1302) = assay: MIC for filamentous fungi; format: cell-based; settings: read-out: Minimal Inhibitory Concentration (MIC)
Excerpt: as §9, §10, §11, §12

filamentous fungi = assay: MIC / MFC for filamentous fungi, all strains; format: cell-based, Aspergillus, Fusarium, Mucor, Penicillium; settings: versus susceptible strains; read-out: Mean MIC values
Excerpt: as §9, §10, §11, §12

Structure (SMILES): Clc1ccc(COC(Cn2ccnc2)c2ccc(Cl)cc2Cl)c(Cl)c1 (stereo not shown) [Miconazole, reference compound]
- CFU/mouse (C. albicans ISS 1): sterile and 3.60 × 10^1 CFU/mouse and 8.10 × 10^1 CFU/mouse

Structure (SMILES): CCCCCCCCCCCCOC(=O)C[C@H](C[N+](C)(C)C)OC(=O)C(C)C [ST 1038]
- MIC (Candida albicans (562)): 3.12 µg/mL
- MIC (Candida albicans (A 54)): 3.12 µg/mL
- MIC (Candida albicans (Ca 2)): 1.56 µg/mL
- MIC (Candida krusei (ISS 1)): 3.12 µg/mL
- MIC [1]: 3.12 µg/mL
- MIC [2]: 1.56 µg/mL
- MIC [3]: 6.25 µg/mL
- MIC [4]: 6.25 µg/mL
- MIC (Candida albicans (PG)): 6.25 µg/mL
- MIC [5]: 3.12 µg/mL
- MIC (Candida albicans (ISS 1)): 6.25 µg/mL
- MIC (Candida glabrata (ISS 1)): 6.25 µg/mL
- MIC [6]: 6.25 µg/mL
- MIC [7]: 6.25 µg/mL
- MIC [8]: 6.25 µg/mL
- MIC [9]: 3.12 µg/mL
- MIC [10]: 3.12 µg/mL
- MIC (yeast-like fungi): 4.4 µg/mL
- MIC [11]: 12.5 µg/mL
- MIC [12]: 12.5 µg/mL
- MIC [13]: 12.5 µg/mL
- MIC [14]: 6.25 µg/mL
- MIC [15]: 12.5 µg/mL
- MIC (Fusarium sp. (ISS 1)): 6.25 µg/mL
- MIC (Mucor mucedo (ATCC 7941)): 25 µg/mL
- MIC (Penicillium sp. (1302)): 12.5 µg/mL
- MIC (filamentous fungi): 12.5 µg/mL

From US5525627A, “Esters of acyl carnitines with long-chain aliphatic alcohols and pharmaceutical compositions containing same having antimycotic activity” (Sigma-Tau Industrie Farmaceutiche Riunite S.p.A., priority 1992, dated 1996)
